A melting point compilation (Tetko et al.)

First: O=c1cccc2n1CC1CNCC2C1 (centres undefined)
Second: Oc1ccccc1C1CCCC1
The melting point of the first is higher: 152 °C for the first, 34.5 °C for the second.

Compared with `O=c1cc(-c2ccccc2)oc2cc(O)ccc12`, `Cc1ccc(-c2ccccc2)cc1C` is lower in melting point: 246 °C for the first, 29.5 °C for the second.

First: C=Cc1ccc(C)cc1C
Second: Cc1cc(F)ccc1[N+](=O)[O-]
The melting point of the first is lower: -64 °C for the first, 20 °C for the second.

First: CSc1[nH]nc(N)c1C#N
Second: Cc1n[nH]c(C)c1C
The melting point of the first is higher: 190 °C for the first, 137 to 139 °C for the second.

Going from `Cc1cc([N+](=O)[O-])ccc1N=C=O` to `Cc1cc(C#N)ccc1[N+](=O)[O-]`, the melting point falls from 83 °C to 81 °C.

Going from `CC(=O)Nc1cccc(N=Nc2cccc(NC(C)=O)c2)c1` to `Cc1cccc(N=Nc2ccc(N(C)C)cc2)c1`, the melting point falls from 272 °C to 138 °C.

First: CCON=C(CC)C1=C(O)CC(c2c(C)cc(C)cc2C)CC1=O (centres undefined)
Second: Cc1cc(C)c2c(c1)CC2=O
The melting point of the first is higher: 110 °C for the first, 48 °C for the second.

First: CC=CCCC=CC
Second: C=CCCCC(=O)O
The melting point of the first is lower: -76 °C for the first, -37 °C for the second.

Compared with `CC1(C)CCC(C)(C)C1`, `CC(C)C1=C(O)C(=O)C2=C(C=CC3C(C)(C)CCCC23C)C1=O` (centres undefined) is higher in melting point: -88.4 °C for the first, 167 °C for the second.

First: S=C=NC12CC3CC(CC(C3)C1)C2
Second: OC1C2CC3CC(C2)CC1C3 (centres undefined)
The melting point of the first is lower: 166 to 168 °C for the first, 301 °C for the second.

First: COC(=O)c1ccc(C)c(Cl)c1
Second: COC(=O)c1ccc2ncccc2c1
The melting point of the first is lower: 29 °C for the first, 88 to 89 °C for the second.

First: O=CC(C=O)c1ccc(Cl)cc1[N+](=O)[O-]
Second: O=Cc1ccc(Cl)c([N+](=O)[O-])c1
The melting point of the first is higher: 137 to 143 °C for the first, 63 °C for the second.

First: O=C(O)Cc1c(F)ccc(F)c1F
Second: O=C(O)Cc1ccc(O)c([N+](=O)[O-])c1
The melting point of the first is lower: 111 to 114 °C for the first, 147 °C for the second.

First: CC1=C(C)C2(C)C(C)=C(C)C12C (centres undefined)
Second: CC(=O)Oc1c(C)cc(O)c(C)c1C
The melting point of the first is lower: 0.7 °C for the first, 108 to 109 °C for the second.

First: NC(=O)c1cccnc1Oc1ccccc1
Second: O=C(O)c1cccc2cccnc12
The melting point of the first is lower: 162 to 163 °C for the first, 187 °C for the second.

First: CC(=O)c1nn(-c2cccc(C)c2C)c(=N)s1
Second: Cc1cccc(Br)c1C(=O)O
The melting point of the first is higher: 170 °C for the first, 109 °C for the second.

Going from `C1=CCCC=C1` to `OC1CCN(Cc2ccccc2)CC1`, the melting point rises from -89 °C to 62 °C.

First: CCOC(=O)c1c(N)sc(C)c1C
Second: CCOC(=O)c1c(-c2ccc(F)cc2)csc1N
The melting point of the first is lower: 90 to 91 °C for the first, 92.5 to 95.5 °C for the second.

Compared with `CC1C(=O)C23C4CC5C(C)(C)CCC(O)C56COC(CC1C2OC(C)(C)O4)C63` (centres undefined), `COC(=O)CCC(C)C1CCC2C3C(O)C(O)C4CCCCC4(C)C3CCC12C` (centres undefined) is lower in melting point: 204 °C for the first, 120 to 121 °C for the second.

Compared with `CC(COc1ccc(Oc2ccccc2)cc1)Oc1ccccn1` (centres undefined), `N#Cc1cccc(C(=O)Cc2cccc(Oc3ccccc3)c2)c1` is higher in melting point: 49 °C for the first, 63.7 to 65.5 °C for the second.

Compared with `Nc1[nH]c(=O)[nH]c(=O)c1N=O`, `Nc1nc(Cl)c2nc[nH]c2n1` is higher in melting point: 280 °C for the first, 300 °C for the second.

Going from `CCC(C)Nc1ccc(NC(C)CC)cc1` (centres undefined) to `CC(C)c1ccc(C(C)C)cc1`, the melting point falls from 18 °C to -17 °C.

Compared with `CCOc1ccc(N=C(CNc2ccc(OCC)cc2)Nc2ccc(OCC)cc2)cc1`, `COc1ccc(NC(=S)c2cc(C(C)(C)C)c(O)c(C(C)(C)C)c2)cc1` is higher in melting point: 113 °C for the first, 128 to 129 °C for the second.

Compared with `Nc1ccc(S(=O)(=O)N2CCOCC2)cc1`, `Nc1cccc(S(N)(=O)=O)c1` is lower in melting point: 216 to 218 °C for the first, 141 °C for the second.

First: Cc1nnc(-c2cccc(S(=O)(=O)Cl)c2)o1
Second: O=S(=O)(Cl)Cc1ccccc1Cl
The melting point of the first is lower: 56 to 59 °C for the first, 60 to 62 °C for the second.

First: Cc1cc(-c2ccc(NC=O)c(C)c2)ccc1NC=O
Second: O=C1c2ccccc2-c2ccc(Cl)cc21
The melting point of the first is higher: 265 to 270 °C for the first, 126 °C for the second.

First: O=C(O)c1ccc(CBr)c([N+](=O)[O-])c1
Second: O=C(O)c1ccc2nsnc2c1
The melting point of the first is lower: 131 °C for the first, 229 to 231 °C for the second.

First: C=CCCCCCCCCC=O
Second: CCCCCCCCCCCC#N
The melting point of the first is higher: 7 °C for the first, 4 °C for the second.

Compared with `Cn1c(Br)nc(C(=O)O)c1C(=O)O`, `Cc1ccc(Br)c(O)c1C(=O)O` is lower in melting point: 160 °C for the first, 57 °C for the second.

First: CC(=O)c1cc(Cl)cc(Cl)c1O
Second: O=C1OC(O)c2cc(Cl)c(Cl)cc21 (centres undefined)
The melting point of the first is lower: 97 °C for the first, 180 °C for the second.

Compared with `CN(C)c1ccc(N=Nc2ccc(N)cc2)cc1`, `Cc1onc2c(-c3ccc(Cl)cc3)nnc(-c3ccccc3)c12` is lower in melting point: 189 °C for the first, 171 °C for the second.

First: O=S(=O)(Cl)c1csc(C(F)(F)F)c1-c1ccccc1
Second: O=S(=O)(Cl)c1ccc(Br)cc1C(F)(F)F
The melting point of the first is higher: 86 to 87 °C for the first, 62 to 63 °C for the second.

First: Cc1ccccc1Oc1cccnn1
Second: Cc1nn(-c2ccccc2)c2oc3ncccc3c(=O)c12
The melting point of the first is lower: 78 °C for the first, 223 to 224 °C for the second.

First: CC1(C)C(=O)OC2=C(CCCC2=Cc2ccccc2)C1c1ccccc1 (centres undefined)
Second: O=C1OC(c2ccccc2)=NC1=Cc1ccc(-c2ccccc2)o1
The melting point of the first is higher: 155 to 157 °C for the first, 142 to 143 °C for the second.

Going from `C=C(C)CO` to `CC(C)(CO)C(=O)O`, the melting point rises from -50 °C to 124 °C.

Compared with `CC(C)C1CCC(Cc2ccc(Cl)cc2)C1(O)Cn1cncn1` (centres undefined), `NC(Cc1ccc(Cl)cc1)C(=O)O` (centres undefined) is higher in melting point: 89 °C for the first, 260 °C for the second.

First: CC(C)(O)C#CC#CC(C)(C)O
Second: CCCN(CC)CC1COC2(CCC(C(C)(C)C)CC2)O1 (centres undefined)
The melting point of the first is higher: 132 to 134 °C for the first, < 25 °C for the second.

Compared with `CCOC(=O)C(=CN)C(=O)OCC`, `CCOC(=O)C1=C(C)NC(C)=C(C(=O)OCC)C1c1cccc(OC)c1O` is higher in melting point: 63 °C for the first, 207 °C for the second.

Going from `OC(c1c2ccccc2cc2ccccc12)C(F)(F)F` (centres undefined) to `CC(=O)C[C@@]1(O)C(=O)c2ccccc2-c2ccccc21`, the melting point falls from 142 °C to 66.8 °C.

Compared with `Cc1cncc(Oc2cccc(N)c2)n1`, `N#C/C(=C\c1cccnc1)c1nc2ccccc2[nH]1` is higher in melting point: 59.5 to 61 °C for the first, 228 °C for the second.

Compared with `CNC(=N[N+](=O)[O-])NCc1cnc(Cl)s1`, `O=[N+]([O-])c1c(Cl)ccc(O)c1Cl` is lower in melting point: 177 °C for the first, 87 °C for the second.

First: O=C1CCC(c2ccc(NC(=O)C(Cl)Cl)cc2)=NN1
Second: CC(C)(C)OC(=O)Nc1ccc(CN)cc1
The melting point of the first is higher: 252 to 253 °C for the first, 89 to 94 °C for the second.

Compared with `O=[N+]([O-])c1cc([N+](=O)[O-])c(C(Cl)=Cc2ccccc2)cc1/C=C\c1ccccc1`, `O=[N+]([O-])/C=C/c1ccccc1` is lower in melting point: 191 °C for the first, 58 °C for the second.

First: O=C1C(=C2C=Cc3cc(-c4ccccc4)ccc3N2)C(=O)c2ccccc21
Second: CCOC(=O)c1c(-c2ccccc2)csc1NC(=O)c1ccc(Cl)cc1
The melting point of the first is higher: 270 to 271 °C for the first, 171 to 172 °C for the second.

Compared with `O=C(Cl)c1ccc(Br)cc1F`, `Oc1ccc(Cl)cc1Br` is higher in melting point: 25 °C for the first, 33 °C for the second.

Compared with `N#CCc1nc(-c2ccccc2)cs1`, `NC(=O)Cc1nc(-c2ccc([N+](=O)[O-])cc2)cs1` is higher in melting point: 59 to 60 °C for the first, 202 to 203 °C for the second.

First: CN(C)NN=C1N=CN=C1C(N)=O
Second: CN(C)C(=O)[C@@H](O)[C@H](O)C(=O)N(C)C
The melting point of the first is higher: 205 °C for the first, 186 to 188 °C for the second.

Going from `C=C(C)C(=O)OCCCCCCCCCCCC` to `CCCCCCCC(=O)CC`, the melting point rises from -7 °C to 2.5 °C.

Going from `O=C1COc2cc(O)ccc21` to `COc1ccc2c(c1)C(C(=O)O)C2` (centres undefined), the melting point falls from 241 °C to 93 °C.

First: c1ccc(C(c2ccccc2)(c2ccccc2)N2CCOCC2)cc1
Second: O=C(O)[C@@H]1Cc2ccccc2CN1C(=O)OCc1ccccc1
The melting point of the first is higher: 175 °C for the first, 137 to 141 °C for the second.

Going from `N#CCCCCCN` to `O=C(O)CCCCCl`, the melting point rises from -31.4 °C to 18 °C.

First: CC(=O)Oc1cc2c(cc1Cl)C1(OC(=O)c3ccccc31)c1cc(Cl)c(OC(C)=O)cc1O2
Second: Nc1ccc([N+](=O)[O-])c2c1C(=O)c1c(Cl)ccc(Cl)c1C2=O
The melting point of the first is lower: 239 to 246 °C for the first, 307 °C for the second.

`N#Cc1cc(F)cc(Br)c1` and `Cc1cc(C)cc(CC#N)c1` cannot be ordered by melting point: 43 to 46 °C for the first, 44 °C for the second.

First: O=Cc1c(Cl)ccc([N+](=O)[O-])c1Cl
Second: COc1ccc(Cl)cc1C=O
The melting point of the first is higher: 165 to 167 °C for the first, 77 °C for the second.

First: CSc1nc2cc(N=Cc3ccccc3Cl)ccc2[nH]1
Second: O=C(O)c1cc2cc(F)ccc2[nH]1
The melting point of the first is lower: 229 to 231 °C for the first, 254 to 258 °C for the second.

First: NC(CS(=O)(=O)c1ccc(Cl)cc1)=NO
Second: CCNc1c(C=O)c(=O)oc2ccccc12
The melting point of the first is higher: 202 to 205 °C for the first, 181 °C for the second.

Going from `BrC(CCC(Br)C(Br)c1ccccc1)C(Br)c1ccccc1` (centres undefined) to `OCCN(CCO)Cc1ccc(COc2ccccc2)cc1`, the melting point falls from 194 °C to 88 °C.

First: FC(F)(F)c1ccc(N2CCCNCC2)nc1
Second: O=C(CCl)N1CCc2c([nH]c3ccccc23)C1C(F)(F)F (centres undefined)
The melting point of the first is lower: 50 to 53 °C for the first, 232 to 235 °C for the second.

First: O=C(O)C(O)n1ccnc1 (centres undefined)
Second: O=C(O)[C@H]1COCN1C(=O)OCc1ccccc1
The melting point of the first is higher: 275 °C for the first, 70 to 74 °C for the second.

First: N#CC1=Cc2ccccc2C1
Second: N#Cc1cc2ccccc2oc1=N
The melting point of the first is lower: 40 °C for the first, 200 °C for the second.

First: Clc1nccc(-c2cccs2)n1
Second: COc1ccc(-c2csc(/C(C#N)=C\c3cccs3)n2)cc1
The melting point of the first is lower: 127 to 129 °C for the first, 140 °C for the second.

Going from `CC=Cc1cc(OC)c(OC)cc1OC` to `COc1cc2c(cc1C)C(C#N)C2` (centres undefined), the melting point rises from 62.5 °C to 67 °C.

Going from `CCCC1CC(C(=O)NC(C(C)Cl)C2OC(SC)C(O)C(O)C2O)N(C)C1` (centres undefined) to `OC1C(O)C(O)C(O)C(O)C1O` (centres undefined), the melting point rises from 141 °C to 230 °C.

First: BrCc1nc2ccccc2nc1CBr
Second: Cc1noc(-c2ccccc2)c1CBr
The melting point of the first is higher: 150 to 154 °C for the first, 72 °C for the second.

First: COc1cc(C=C(O)C(F)(F)C(F)(F)F)nc(OC)n1
Second: CC(C)(C)OC(=O)Nc1ccco1
The melting point of the first is lower: 58 to 60 °C for the first, 98 to 100 °C for the second.

First: N#CC1C(=S)NC2(C(=O)Nc3ccccc32)C2=C1CCC2 (centres undefined)
Second: O=C1COCC(=O)O1
The melting point of the first is higher: 311 °C for the first, 90 to 95 °C for the second.

First: Clc1cc2c(c(Cl)c1Cl)Oc1c(Cl)c(Cl)c(Cl)c(Cl)c1O2
Second: CC(O)CCc1ccc(CCC(C)O)cc1 (centres undefined)
The melting point of the first is higher: 264 °C for the first, 42 to 46 °C for the second.
